Results taken from patent US9883998B2, “Methods for lightening skin using arbutin compositions” (OMP, Inc., priority 2007, dated 2018).

Assays:
skin = assay: Skin lightening in volunteers by Minolta Chromameter b* parameter; type: in vivo, human; conditions: for dose dependence of skin lightening efficacy: 4% versus 7% arbutin in Examples 1 and 2 base formulas
Description: Ten volunteers between the ages of 18 and 60 years of age enrolled in the study. Volunteers included in the study were of Asian or Caucasian descent with a Fitzpatrick phototype III or above. Enrolled subjects were free of any systemic or dermatologic disorder, including a known history of allergies or other medical conditions which, in the opinion of the Medical Investigator, could interfere with the conduct of the study, interpretation of results, or increase the risk of adverse reactions. Moreover, volunteers had no clinically significant abnormal findings, based on their medical history, which may have affected study participation as determined by the investigator. Impaneled female volunteers were not pregnant (as assessed with a urine pregnancy test at the start of the study and every 4 weeks thereafter) and agreed to use suitable contraceptive methods throughout the duration of the study. All volunteers were willing to refrain from using any medications, moisturizers, sunscreens, fragrances or new personal care products/laundry detergents on the back for the duration of the study and were also willing to avoid sun exposure, on the back (ie, sunbathing), as best as possible and refrain from using tanning booths for the study duration. Furthermore, subjects agreed to avoid swimming for the entire study.
All volunteers reported to the clinical site every day, excluding weekends, for application of study products in an open label, un-blinded fashion. Study products and dosing were as follows:
All subjects had 2 cm^2 squares demarcated on their backs, with a plastic template adhered to the skin, for identification of treatment sites. […]
The safety of the formulations of Example 1 and Example 2 was assessed via Repeated Insult Patch Testing on 49 volunteers, in a separate study. All products used in the study presented herein were evaluated for safety through investigator scoring of the application sites at baseline, 4- and 8-weeks. […] Skin lightening was assessed via use of the Minolta CR-300 Chromameter® at baseline, 4- and 8-weeks. […]

tyrosinase = tyrosinase (Homo sapiens, UniProt P14679); conditions: human melanocyte cultures; cited from earlier work
Chain of tyrosinase (P14679 19-529): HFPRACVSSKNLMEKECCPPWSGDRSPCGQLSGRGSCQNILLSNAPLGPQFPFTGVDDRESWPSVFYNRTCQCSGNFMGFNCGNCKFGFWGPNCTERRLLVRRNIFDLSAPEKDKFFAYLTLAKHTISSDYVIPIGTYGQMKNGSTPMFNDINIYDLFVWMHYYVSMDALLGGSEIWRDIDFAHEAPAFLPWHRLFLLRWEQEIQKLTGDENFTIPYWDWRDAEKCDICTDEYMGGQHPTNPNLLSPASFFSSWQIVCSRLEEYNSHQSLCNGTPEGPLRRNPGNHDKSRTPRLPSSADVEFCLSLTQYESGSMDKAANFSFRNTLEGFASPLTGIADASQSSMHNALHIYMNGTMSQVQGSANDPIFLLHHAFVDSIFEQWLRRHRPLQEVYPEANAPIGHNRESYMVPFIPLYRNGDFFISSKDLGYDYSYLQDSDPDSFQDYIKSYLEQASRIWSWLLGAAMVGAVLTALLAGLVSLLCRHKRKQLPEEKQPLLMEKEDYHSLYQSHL

With `OC[C@H]1O[C@@H](Oc2ccc(O)cc2)[C@H](O)[C@@H](O)[C@@H]1O` [Arbutin, hydroxy phenyl-b-D-glucopyranoside] the “dose dependence of skin lightening efficacy” value (skin) was “dose dependent”, the “dose dependence of skin lightening efficacy” value (skin; listed as arbutin) was “dose dependant” and the “skin lightening efficacy of 7% arbutin versus 4% hydroquinone” value (skin; 7% arbutin, relatively non-photoexposed skin, formulas similar to bleaching and correcting cream and Blender bases) was “equally as efficacious as 4% hydroquinone”. For the same molecule, the “tyrosinase inhibiting potency relative to hydroquinone” value (tyrosinase) was “one-hundredth that of hydroquinone”.
